Experimental data as given in patent EP0367447A1, “Human epithelial transforming growth factor” (SMITHKLINE BEECHAM CORPORATION, priority 1988, dated 1990).
Ends that are not written are not given here.

Test system: SW13 cells
Assay: growth of SW13 cells in soft agar (colony formation, Halper et al. 1983, modified)
Type: cell-based, human
Details: qualitative; whether the substance stimulates or mimics the growth response
Protocol: By the term 'anchorage independent growth of SW13 cells in soft agar in an autocrine fashion' is meant that the anchorage independent growth of the SW13 cells in soft agar is stimulated by a growth factor produced by the SW13 cells. Such 'anchorage independent growth of SW13 cells in soft agar is measured by the method described by Halper et al., Cancer Research, 43, 1972-1979 (1983). Preferably such method is modified so that the base and upper layers contain 0.5% and 0.3% agarose, respectively in DMEM, 10% fetal bovine serum, and 5000 cells are plated per 3 cm dish.
h-TGFe activity was measured using growth of SW13 cells in soft agar as described by Halper et al., Cancer Research, 43, 1972-1979 (1983), except that the base and upper layers contained 0.5% and 0.3% agarose, respectively in DMEM, 10% fetal bovine serum, and 5000 cells were plated per 3 cm dish.
Human milk was delipidated by ether extraction and acidified with TFA (0.5% final concentration). The acidified material was filtered through a 0.45 µm membrane and concentrated 5-fold using an Amicon YM5 membrane. The concentrate was dialyzed against 0.05% TFA, lyophilized, reconstituted at 10 times the original concentration and bioassayed on SW13 cells.
Samples of colon carcinoma tissue from patients along with two specimens of normal adjacent colon were obtained at surgery and snap frozen in liquid nitrogen. […]

Substance	colony formation by SW13 cells in the soft agar assay
bombesin	not mimicked
gastrin: Synthetic human gastrin obtained from Sigma (QGPWLEEEEEAYGWMDF; ends and bridges not checked; UniProt P01350 76-92, looked up)	not mimicked
